{"source": "paper PMC7490411", "about": "(Signal Transduction and Targeted Therapy, 2020)", "key": {"[1]": {"tested_on": "ASK2", "assay": "KINOMEscan", "format": "binding", "details": "1000 nM"}, "[2]": {"tested_on": "NEK2", "assay": "KINOMEscan", "format": "binding", "details": "1000 nM"}, "[3]": {"tested_on": "PFPK5(P.falciparum)", "assay": "KINOMEscan", "format": "binding", "details": "1000 nM"}, "[4]": {"tested_on": "TNK1", "assay": "KINOMEscan", "format": "binding", "details": "1000 nM"}, "[5]": {"tested_on": "CAMK2B", "assay": "KINOMEscan", "format": "binding", "details": "1000 nM"}, "[6]": {"tested_on": "RSK4(Kin.Dom.1-N-terminal)", "assay": "KINOMEscan", "format": "binding", "details": "1000 nM"}, "[7]": {"tested_on": "MEK3", "assay": "KINOMEscan", "format": "binding", "details": "1000 nM"}, "[8]": {"tested_on": "ALK(C1156Y)", "assay": "KINOMEscan", "format": "binding", "details": "1000 nM"}, "[9]": {"tested_on": "p38-gamma", "assay": "KINOMEscan", "format": "binding", "details": "1000 nM"}, "[10]": {"tested_on": "MET(M1250T)", "assay": "KINOMEscan", "format": "binding", "details": "1000 nM"}, "[11]": {"tested_on": "AAK1", "assay": "KINOMEscan", "format": "binding", "details": "1000 nM"}, "[12]": {"tested_on": "panel of B-cell lymphoma cell lines", "assay": "anti-proliferative CellTiter-Glo assay, whole panel", "format": "cell-based", "details": "all cell lines of the B-cell lymphoma panel", "description": "Cell viability was measured using the CellTiter–Glo assay (Promega, USA) according to the manufacturer’s instructions, and […] was measured in a Bio-red Microplate reader (Bio-Red, USA)."}, "[13]": {"tested_on": "FYN", "assay": "KINOMEscan", "format": "binding", "details": "1000 nM"}, "[14]": {"tested_on": "RET(V804L)", "assay": "KINOMEscan", "format": "binding", "details": "1000 nM"}, "[15]": {"tested_on": "LRRK2(G2019S)", "assay": "KINOMEscan", "format": "binding", "details": "1000 nM"}, "[16]": {"tested_on": "CLK2", "assay": "KINOMEscan", "format": "binding", "details": "1000 nM"}, "[17]": {"tested_on": "LOK", "assay": "KINOMEscan", "format": "binding", "details": "1000 nM"}, "[18]": {"tested_on": "LATS1", "assay": "KINOMEscan", "format": "binding", "details": "1000 nM"}, "[19]": {"tested_on": "PIM1", "assay": "KINOMEscan", "format": "binding", "details": "1000 nM"}, "[20]": {"tested_on": "CDK5", "assay": "KINOMEscan", "format": "binding", "details": "1000 nM"}, "[21]": {"tested_on": "ABL1(E255K)-phosphorylated", "assay": "KINOMEscan", "format": "binding", "details": "1000 nM"}, "[22]": {"tested_on": "NK cells co-seeded with Mino cells", "assay": "IFN-γ secretion ELISA, NK cells co-cultured with Mino cells in presence of Rituximab", "format": "cell-based, human", "details": "Mino co-culture; 0.1 to 3 μM"}, "[23]": {"tested_on": "FGFR4", "assay": "KINOMEscan", "format": "binding", "details": "1000 nM"}, "[24]": {"tested_on": "MEK6", "assay": "KINOMEscan", "format": "binding", "details": "1000 nM"}, "[25]": {"target": "T1, BMX (Homo sapiens, UniProt P51813)", "T1 construct": "purchased Invitrogen (Carlsbad, CA, USA)", "T1 sequence (P51813 1-675)": "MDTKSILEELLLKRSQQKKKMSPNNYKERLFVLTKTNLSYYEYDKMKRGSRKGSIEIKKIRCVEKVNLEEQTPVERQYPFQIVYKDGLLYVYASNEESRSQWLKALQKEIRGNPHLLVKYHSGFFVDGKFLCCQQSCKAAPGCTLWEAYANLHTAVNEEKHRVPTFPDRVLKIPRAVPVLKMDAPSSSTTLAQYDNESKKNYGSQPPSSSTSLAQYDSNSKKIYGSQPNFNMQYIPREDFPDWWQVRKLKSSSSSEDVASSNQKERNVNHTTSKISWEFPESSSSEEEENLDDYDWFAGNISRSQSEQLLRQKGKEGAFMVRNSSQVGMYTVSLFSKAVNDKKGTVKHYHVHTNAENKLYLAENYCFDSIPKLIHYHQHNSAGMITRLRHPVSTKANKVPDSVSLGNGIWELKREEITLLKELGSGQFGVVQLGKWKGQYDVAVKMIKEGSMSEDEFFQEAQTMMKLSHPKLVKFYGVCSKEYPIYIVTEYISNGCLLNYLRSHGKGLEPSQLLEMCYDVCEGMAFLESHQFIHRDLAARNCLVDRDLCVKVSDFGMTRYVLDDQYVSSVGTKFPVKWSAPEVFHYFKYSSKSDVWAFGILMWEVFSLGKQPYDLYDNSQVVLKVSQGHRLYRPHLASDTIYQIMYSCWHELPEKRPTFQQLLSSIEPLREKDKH", "assay": "KINOMEscan", "format": "binding", "details": "1000 nM"}, "[26]": {"tested_on": "ERN1", "assay": "KINOMEscan", "format": "binding", "details": "1000 nM"}, "[27]": {"tested_on": "SNRK", "assay": "KINOMEscan", "format": "binding", "details": "1000 nM"}, "[28]": {"tested_on": "RIOK3", "assay": "KINOMEscan", "format": "binding", "details": "1000 nM"}, "[29]": {"tested_on": "PIK3CA(H1047L)", "assay": "KINOMEscan", "format": "binding", "details": "1000 nM"}, "[30]": {"tested_on": "TRKC", "assay": "KINOMEscan", "format": "binding", "details": "1000 nM"}, "[31]": {"tested_on": "TESK1", "assay": "KINOMEscan", "format": "binding", "details": "1000 nM"}, "[32]": {"tested_on": "FAK", "assay": "KINOMEscan", "format": "binding", "details": "1000 nM"}, "[33]": {"tested_on": "KIT(V559D)", "assay": "KINOMEscan", "format": "binding", "details": "1000 nM"}, "[34]": {"tested_on": "AURKB", "assay": "KINOMEscan", "format": "binding", "details": "1000 nM"}, "[35]": {"tested_on": "FGR", "assay": "KINOMEscan", "format": "binding", "details": "1000 nM"}, "[36]": {"tested_on": "TBK1", "assay": "KINOMEscan", "format": "binding", "details": "1000 nM"}, "[37]": {"tested_on": "CDK4-cyclinD3", "assay": "KINOMEscan", "format": "binding", "details": "1000 nM"}, "[38]": {"tested_on": "RET(V804M)", "assay": "KINOMEscan", "format": "binding", "details": "1000 nM"}, "[39]": {"tested_on": "PKN1", "assay": "KINOMEscan", "format": "binding", "details": "1000 nM"}, "[40]": {"tested_on": "ABL1(H396P)-phosphorylated", "assay": "KINOMEscan", "format": "binding", "details": "1000 nM"}, "[41]": {"tested_on": "TAOK3", "assay": "KINOMEscan", "format": "binding", "details": "1000 nM"}, "[42]": {"tested_on": "MAP4K3", "assay": "KINOMEscan", "format": "binding", "details": "1000 nM"}, "[43]": {"tested_on": "GSK3B", "assay": "KINOMEscan", "format": "binding", "details": "1000 nM"}, "[44]": {"tested_on": "MAP4K2", "assay": "KINOMEscan", "format": "binding", "details": "1000 nM"}, "[45]": {"tested_on": "PIK3CD", "assay": "KINOMEscan", "format": "binding", "details": "1000 nM"}}}
{"smiles": "C=CC(=O)Nc1cc(Nc2cc(-c3cccc(NC(=O)c4cc5c(s4)CCCC5)c3C)cn(C)c2=O)ccc1N1CCN(CC)CC1", "note": "[CHMFL-BTK-85]", "values": [{"measurement": "Percent Control", "setting": "[1]", "result": 100, "unit": "%"}, {"measurement": "Percent Control", "setting": "[2]", "result": 99, "unit": "%"}, {"measurement": "Percent Control", "setting": "[3]", "result": 100, "unit": "%"}, {"measurement": "Percent Control", "setting": "[4]", "result": 75, "unit": "%"}, {"measurement": "Percent Control", "setting": "[5]", "result": 100, "unit": "%"}, {"measurement": "Percent Control", "setting": "[6]", "result": 100, "unit": "%"}, {"measurement": "Percent Control", "setting": "[7]", "result": 100, "unit": "%"}, {"measurement": "Percent Control", "setting": "[8]", "result": 100, "unit": "%"}, {"measurement": "Percent Control", "setting": "[9]", "result": 62, "unit": "%"}, {"measurement": "Percent Control", "setting": "[10]", "result": 95, "unit": "%"}, {"measurement": "Percent Control", "setting": "[11]", "result": 82, "unit": "%"}, {"measurement": "GI50s", "setting": "[12]", "result": "< 2", "unit": "µM"}, {"measurement": "Percent Control", "setting": "[13]", "result": 74, "unit": "%"}, {"measurement": "Percent Control", "setting": "[14]", "result": 76, "unit": "%"}, {"measurement": "Percent Control", "setting": "[15]", "result": 100, "unit": "%"}, {"measurement": "Percent Control", "setting": "[16]", "result": 84, "unit": "%"}, {"measurement": "Percent Control", "setting": "[17]", "result": 100, "unit": "%"}, {"measurement": "Percent Control", "setting": "[18]", "result": 100, "unit": "%"}, {"measurement": "Percent Control", "setting": "[19]", "result": 95, "unit": "%"}, {"measurement": "Percent Control", "setting": "[20]", "result": 98, "unit": "%"}, {"measurement": "Percent Control", "setting": "[21]", "result": 85, "unit": "%"}, {"measurement": "inhibition of Rituximab-induced IFN-γ secretion in NK cells", "setting": "[22]", "result": "no apparent inhibition"}, {"measurement": "Percent Control", "setting": "[23]", "result": 92, "unit": "%"}, {"measurement": "Percent Control", "setting": "[24]", "result": 78, "unit": "%"}, {"measurement": "percent of control binding at 1 µM", "setting": "[25]", "result": 59, "unit": "%"}, {"measurement": "Percent Control", "setting": "[26]", "result": 100, "unit": "%"}, {"measurement": "Percent Control", "setting": "[27]", "result": 86, "unit": "%"}, {"measurement": "Percent Control", "setting": "[28]", "result": 100, "unit": "%"}, {"measurement": "Percent Control", "setting": "[29]", "result": 100, "unit": "%"}, {"measurement": "Percent Control", "setting": "[30]", "result": 100, "unit": "%"}, {"measurement": "Percent Control", "setting": "[31]", "result": 96, "unit": "%"}, {"measurement": "Percent Control", "setting": "[32]", "result": 99, "unit": "%"}, {"measurement": "Percent Control", "setting": "[33]", "result": 79, "unit": "%"}, {"measurement": "Percent Control", "setting": "[34]", "result": 100, "unit": "%"}, {"measurement": "Percent Control", "setting": "[35]", "result": 20, "unit": "%"}, {"measurement": "Percent Control", "setting": "[36]", "result": 72, "unit": "%"}, {"measurement": "Percent Control", "setting": "[37]", "result": 88, "unit": "%"}, {"measurement": "Percent Control", "setting": "[38]", "result": 68, "unit": "%"}, {"measurement": "Percent Control", "setting": "[39]", "result": 70, "unit": "%"}, {"measurement": "Percent Control", "setting": "[40]", "result": 85, "unit": "%"}, {"measurement": "Percent Control", "setting": "[41]", "result": 100, "unit": "%"}, {"measurement": "Percent Control", "setting": "[42]", "result": 97, "unit": "%"}, {"measurement": "Percent Control", "setting": "[43]", "result": 100, "unit": "%"}, {"measurement": "Percent Control", "setting": "[44]", "result": 100, "unit": "%"}, {"measurement": "Percent Control", "setting": "[45]", "result": 100, "unit": "%"}]}
